Data published in US6472213B1, “Shuttle vectors for the introduction of DNA into mycobacteria and utilization of such bacteria as vaccines” (Institut National de la Sante et de la Recherche Medicale …, priority 1994, dated 2002).

Assays:
[1] = test system: non-transformed control mycobacteria; type: cell-based, M. smegmatis, M. bovis BCG, M. tuberculosis
[2] = test system: mycobacteria carrying the plasmid pMR001; type: cell-based, M. smegmatis, M. bovis BCG, M. tuberculosis
[3] = test system: pVN2-carrying mycobacteria; type: cell-based, M. smegmatis, M. bovis BCG, M. tuberculosis
[4] = test system: Mycobacterium smegmatis carrying plasmid pVN3; experiment: Resistance to arsenic conferred by plasmid pVN3; type: cell-based; settings: pVN3 in Mycobacterium smegmatis

Compound | MIC Liquid medium [1] [mg/L] | MIC Solid medium [1] [mg/L] | concentration at which considerable susceptibility is shown [1] [µg/mL] | concentration of complete inhibition of bacterial growth (MIC) [1] [mg/L] | MIC Liquid medium [2] [mg/L] | MIC Solid medium [2] [mg/L] | concentration at which still capable of growing [2] [µg/mL] | concentration of complete inhibition of bacterial growth [2] [µg/mL] | MIC Liquid medium [3] [mg/L] | MIC Solid medium [3] [mg/L] | concentration up to which growth occurs [3] [µg/mL] | resistance level [4] [mg/L]
[Cl][Hg][Cl] [HgCl2] | 1.25 | 0.15 | 0.15 | 1 | 40 | 160 | 20 | 160 | 40 | 160 | ≤ 40 | –
arsenic nitrate [AsNO3] | – | – | – | – | – | – | – | – | – | – | – | ~10
